Measurements taken from US7250258B2 (priority 2003, dated 2007).

Tests used:
[1] = tested on: Caucasian patients diagnosed with Alzheimer's Disease; test: Clinical association of CDK5 haplotype copy number with galantamine response (ΔADAS-cog responder vs non-responder, logistic regression); format: in vivo, human
Method: Following 3, 5, 6 or 12 months of treatment in the GAL-INT2, GAL-USA 10, GAL-INT-1 and SAB-USA-25 trials, respectively, the severity of symptoms in patients were evaluated using the cognitive subscale of the Alzheimer's Disease Assessment Scale (ADAS-cog) (Rosen et al., supra; Rockwood et al., supra; Tariot et al., supra; Wilcock et al., supra). The ADAS-cog measures cognitive function, including spoken language ability, comprehension of spoken language, recall of test instructions, word-finding difficulty in spontaneous speech, following commands, naming objects and fingers, constructional praxis, ideational praxis, orientation, word-recall task and word-recognition task (Alzheimer's Insights Online, supra).
For the clinical association study described in Example 2 below, 174 patients were selected and used to populate two groups in a tailed sampling strategy, intended to enrich alleles correlating with drug response in the population. […] Patients were assigned to responder and non-responder groups based on having a change in ADAS-cog score (ΔADAS-cog) that met a cut-off value that was chosen based on the differences in treatment times in the four clinical trials described above. The ΔADAS-cog cut-off values and treatment times used for each responder and non-responder group from each of the four clinical trials are shown in Table 6 below.
The statistical analyses compared ΔADAS-cog in patients with one copy vs. zero copies, two copies vs. zero copies, and two copies vs. one copy (within a patient's genome) of a particular allele, using a logistic regression analysis on two-degrees of freedom to associate clinical response with a particular haplotype. The following covariates were also included: age, gender, history, smoking, ADAS-cog baseline, dose (BID), body mass index, and CYP2D6. The logistic regression included assessment of associations between the haplotypes and the binary outcome of clinical response.
For the results obtained on the analyses, adjustments were made for multiple comparisons, using a permutation test (MULTIVARIATE PERMUTATION TESTS: WITH APPLICATIONS IN BIOSTATISTICS, Pesarin, John Wiley and Sons, New York, 2001). In this test, a sub-haplotype's data for each observation were kept constant, while all the remaining variables (outcome and covariates) were randomly permuted so that covariates always stayed with the same outcome. The permutation model was fitted for each of the several haplotypes, and the lowest p-value was kept. In total, 1000 permutations were done.

AD patients [2] = settings: galantamine therapy; cited from earlier work
AD patients [3] = settings: presence of the ApoE4 allele; cited from earlier work

Compound | Subject Count for Haplotype with Highest Level Response ([1]; haplotype (1), 0 copies, of 41 subjects) | Subject Count for Haplotype with Highest Level Response ([1]; haplotype (1), 1 copy, of 88 subjects) | Subject Count for Haplotype with Highest Level Response ([1]; haplotype (1), 2 copies, of 45 subjects) | Subject Count for Haplotype with Highest Level Response ([1]; haplotype (2), 0 copies, of 41 subjects) | Subject Count for Haplotype with Highest Level Response ([1]; haplotype (2), 1 copy, of 88 subjects) | Subject Count for Haplotype with Highest Level Response ([1]; haplotype (2), 2 copies, of 45 subjects) | most common side effects (AD patients [2]) | response to treatment in presence of ApoE4 polymorphism (AD patients [3])
COc1ccc2c3c1O[C@H]1C[C@@H](O)C=C[C@@]31CCN(C)C2 [galantamine] | 26 (0) | 46 (1) | 13 (2) | 26 (0) | 46 (1) | 13 (2) | nausea, vomiting, diarrhea, dizziness and anorexia | 
Nc1c2c(nc3ccccc13)CCCC2 [tacrine] |  |  |  |  |  |  |  | reduced response to treatment
